The structures appear in SMILES notation. Where a name gives a salt, the structure may show the parent alone. Read-outs that look alike come from different tables or passages of the source. Some results are limits rather than exact numbers.

The test system of data set [1] is collagen-induced aggregation (platelet-rich plasma). The data set is described as follows: Born test, rat ex vivo, collagen-induced aggregation. It is filed as in vivo. As to conditions: 1 hour after administration, optical density. How it is done:
(b) Born test, rat ex vivo, collagen-induced aggregation
The following forms were tested:
The test compound was administered by esophageal tube in the form of an aqueous solution or, in the case of compound A in the form of a tylose suspension, to conscious rats weighing about 450 g. After 1 hour, blood was taken from the abdominal aorta of the animals (which had previously been anesthetized with pentobarbital sodium). The platelet-rich plasma obtained by centrifuging was pooled. The controls were three animals which had not been given any of the test compound. The method of taking blood and preparing the plasma was the same for both groups. The anticoagulant used was 2% sodium citrate in a volume ratio of 1+9.
All the testing was carried out one hour after the administration of the test compound.

Data set [2] relates to rat. The data set is described as follows: edema test (antiphlogistic effect). As to conditions: for powerful antiphlogistic effect, dose range: p.o. in the rat (edema test). It is filed as in vivo.
The subject of data set [3] is stomach of the rat. The data set is described as follows: ulcerogenic effect on the stomach of the rat. It is filed as in vivo.
Data set [4] concerns collagen-induced thrombocyte aggregation. The data set is described as follows: Born test, collagen-induced aggregation (platelet-rich plasma). It is filed as cell-based, human (healthy test subjects). As to conditions: for inhibition at 10 µM: 10^-5 Mol/l; for inhibition at 1 µM: 10^-6 Mol/l. The procedure: The compounds were tested for their inhibiting effects in blood platelet aggregation induced by collagen and their effect of prolonging the bleeding time in mice. The compounds were also tested for their acute toxicity.
(a) Born test, collagen-induced aggregation
The thrombocyte aggregation was measured on platelet-rich plasma from healthy test subjects using the method of BORN and CROSS (J. Physiol. 170, 397 [1964]). The decrease in optical density of the platelet suspensions after the addition of collagen was measured photometrically and recorded. The rate of aggregation was deduced from the angle of inclination of the density curve. The point on the curve at which there is maximum light transmittance was used to calculate the "optical density". The quantity of collagen was selected so as to obtain an irreversible control curve.
The figures given refer to the optical density and indicate the percentage change in light transmittance (=% attenuation of aggregation) under the effect of the test substance, compared with the control.
Standard commercial collagen made by Hormon-Chemie of Munich was used.

Data set [5] deals with mice. Description: Determination of acute toxicity. It is filed as in vivo. The procedure:
(§1) (d) Determination of acute toxicity
(§2) The acute toxicity was determined after oral administration to male and female mice. The compounds were administered as a suspension in tylose.
(§3) The following table indicates the number of animals which died within 1, 7 and 14 days after receiving the doses stated: […]

Data set [6] is described as follows: Determination of acute toxicity. It is filed as in vivo. Conditions: mouse, in vivo; oral, mice; printed ">>1000 mg/kg". The procedure:
as §1, §2, §3

Data set [7] deals with bleeding time in mice. The data set is described as follows: Determination of the bleeding time in mice (method of DUKE). It is filed as in vivo, mouse (NMRI Biberach). The procedure: (c) Determination of the bleeding time in mice
The bleeding time was measured on unanesthetized female mice weighing from 20 to 25 g by the method of DUKE (J. Amer. Med. Assoc.) 15, 1187, 1910). About 0.5 mm of the tip of the animals' tail was cut off, and the blood escaping was carefully wiped away with a strip of filter paper at 30 second intervals. The number of drops of blood thus obtained provided a measurement of the bleeding time. The normal bleeding time in mice is 4.1 minutes on average.
Strain of animals: NMRI Biberach
Number of animals per test: 5
The test compound was administered by esophageal tube one hour before the measurement.

[8] abbreviates: Homo sapiens, optical density, read-out: BORN test [= % reduction in aggregation].
[9] abbreviates: Homo sapiens, Table I, read-out: IC50 (50% reduction in aggregation).
Setting [10] is: 250 mg/kg oral, of 10 animals (A) or 5 animals (B, Y, Z).
[11] abbreviates: 1000 mg/kg oral, of 10 animals (A) or 5 animals (B).
Where [12] appears, read: Homo sapiens, as stated in text on Table I, read-out: concentration giving a 50% reduction in aggregation.

As to `CN1C(C(=O)Nc2cncc(Cl)n2)=C(O)c2ccccc2S1(=O)=O` [C, Sodium salt of N-(6-chloro-pyrazin-2-yl)-4-hydroxy-2-methyl-2H-1,2-benzothiazine-3-carboxamide-1,1-dioxide], the “percentage inhibition of aggregation” value in data set [1] (0.0125 mg/kg p.o.) was determined as 0%; in data set [1] (0.025 mg/kg p.o.), 32%; in data set [1] (0.05 mg/kg p.o.), 96%; in data set [1] (0.125 mg/kg p.o.), 100%; in data set [1] (0.25 mg/kg p.o.) it was 100%; in data set [1] (0.5 mg/kg p.o.), 100%.
In the case of `CN1C(C(=O)Nc2cncc(Cl)n2)=C(O)c2ccccc2S1(=O)=O` [Compound A, N-(6-Chloro-pyrazin-2-yl)-4-hydroxy-2-methyl-2H-1,2-benzothiazine-3-carboxamide-1,1-dioxide], the ED35 in data set [2] (Rattus norvegicus, po, edema test) was > 200 mg/kg. Further, in data set [2] (edema test), the antiphlogistic effect entry is “no antiphlogistic effect”. Also, in data set [1] (0.125 mg/kg p.o.), the “percentage inhibition of aggregation” value was found to be 14%. Besides, the inhibition at 0.25 mg/kg in data set [1] (Rattus norvegicus, po, 1 h, 0.25 mg/kg p.o., read-out: percentage inhibition of aggregation) was determined as 93%. For the same compound, the inhibition at 0.5 mg/kg in data set [1] (Rattus norvegicus, po, 1 h, 0.5 mg/kg p.o., read-out: percentage inhibition of aggregation) amounted to 86%. The ulcerogenic effect result in data set [3] was “no ulcerogenic effect up to 100 mg/kg”. Moreover, in data set [4] (setting [8]), the inhibition at 10 µM turned out to be 95% and the inhibition at 1 µM is 71%. Further, in data set [4] (Homo sapiens, 10^-7 Mol/l, optical density, read-out: BORN test [= % reduction in aggregation]), the inhibition at 0.1 µM amounted to 6%. Besides, the IC50 in data set [4] (setting [9]) is 470 nM. Also, the “concentration leading to a 50% reduction compared with prior art compounds Y and Z” value in data set [4] (comparison with Y and Z) is “about one tenth power lower”. Moreover, in data set [5] (setting [10]), the “Animals which died during the observation period, 1 day” value is given as 0; the “Animals which died during the observation period, 7 days” value is listed as 0; the “Animals which died during the observation period, 14 days” value is 0. Also, in data set [5] (setting [11]), the “Animals which died during the observation period, 1 day” value is 0; the “Animals which died during the observation period, 7 days” value is listed as 0; the “Animals which died during the observation period, 14 days” value was determined as 0. Further, the LD50 (usually the dose expected to kill half of the subjects tested) at 336 h in data set [6] was > 1000 mg/kg.
As to `CN1C(C(=O)Nc2cncc(Cl)n2)=C(O)c2ccccc2S1(=O)=O` [Compound B, Potassium salt of N-(6-chloro-pyrazin-2-yl)-4-hydroxy-2-methyl-2H-1,2-benzothiazine-3-carboxamide-1,1-dioxide], the entries for the “percentage inhibition of aggregation” value in data set [1] (0.0125 mg/kg p.o.), in data set [1] (0.025 mg/kg p.o.) and in data set [1] (0.05 mg/kg p.o.) were 26%, 86% and 100%, respectively. Further, the “Animals which died during the observation period, 1 day” value in data set [5] (setting [10]) and in data set [5] (setting [11]) was 0 throughout. For the same compound, the “Animals which died during the observation period, 7 days” value in data set [5] (setting [10]) turned out to be 0; in data set [5] (setting [11]), 1. Further, the “Animals which died during the observation period, 14 days” value is 0 in data set [5] (setting [10]) and 1 in data set [5] (setting [11]).
Consider `CN1C(C(=O)Nc2cncc(Cl)n2)=C(O)c2ccccc2S1(=O)=O` [D, Tetramethylammonium salt of N-(6-chloro-pyrazin-2-yl)-4-hydroxy-2-methyl-2H-1,2-benzothiazine-3-carboxamide-1,1-dioxide], for which the “percentage inhibition of aggregation” value worked out at 27% in data set [1] (0.0125 mg/kg p.o.), 20% in data set [1] (0.025 mg/kg p.o.) and 97% in data set [1] (0.05 mg/kg p.o.).
In the case of `CN1C(C(=O)Nc2cncc(Cl)n2)=C(O)c2ccccc2S1(=O)=O` [E, Ethanolamine salt of N-(6-chloropyrazin-2-yl)-4-hydroxy-2-methyl-2H-1,2-benzothiazine-3-carboxamide-1,1-dioxide], the entries for the “percentage inhibition of aggregation” value in data set [1] (0.0125 mg/kg p.o.), in data set [1] (0.025 mg/kg p.o.) and in data set [1] (0.05 mg/kg p.o.) were 10%, 53% and 87%, respectively.
As to `CN1C(C(=O)Nc2cncc(Cl)n2)=C(O)c2ccccc2S1(=O)=O` [F, Calcium salt of N-(6-chloro-pyrazin-2-yl)-4-hydroxy-2-methyl-2H-1,2-benzothiazine-3-carboxamide-1,1-dioxide], the figures for the “percentage inhibition of aggregation” value in data set [1] (0.0125 mg/kg p.o.), in data set [1] (0.025 mg/kg p.o.) and in data set [1] (0.05 mg/kg p.o.) were 27%, 64% and 77%, respectively.
Taken in the same sequence, the figures for `CN1C(C(=O)Nc2cncc(Cl)n2)=C(O)c2ccccc2S1(=O)=O` [G, Ammonium salt of N-(6-chloro-pyrazin-2-yl)-4-hydroxy-2-methyl-2H-1,2-benzothiazine-3-carboxamide-1,1-dioxide] were 7%, 36% and 92%.
`CN1C(C(=O)Nc2ccccn2)=C(O)c2ccccc2S1(=O)=O` [Y, 4-hydroxy-2-methyl-N-(2-pyridyl)-2H-1,2-benzothiazine-3-carboxamide-1,1-dioxide]: the “powerful antiphlogistic effect, dose range” value in data set [2] is recorded as 1 to 5 mg/kg. Moreover, in data set [7] (10 mg/kg), the side effects entry was “already show side effects”. In addition, the ulcerogenic effect result in data set [3] is “strong ulcerogenic effect”. In addition, in data set [4] (setting [8]), the inhibition at 10 µM worked out at 85% and the inhibition at 1 µM was found to be 39%. Further, the IC50 in data set [4] (setting [9]) was 2000 nM. For the same compound, in data set [4] (setting [12]), the IC50 came out at 2000 nM. Moreover, in data set [5] (setting [10]), the “Animals which died during the observation period, 1 day” value is 0; the “Animals which died during the observation period, 7 days” value turned out to be 3; the “Animals which died during the observation period, 14 days” value is reported as 3.
On to `CN1C(C(=O)Nc2cnccn2)=C(O)c2ccccc2S1(=O)=O` [Z, 4-hydroxy-2-methyl-N-(2-pyrazinyl)-2H-1,2-benzothiazine-3-carboxamide-1,1-dioxide], for which the “powerful antiphlogistic effect, dose range” value in data set [2] is listed as 1 to 5 mg/kg. The “Prolongation of bleeding time” value in data set [7] (10 mg/kg by esophageal tube, one hour before the measurement) is “+62%”. Moreover, in data set [3], the ulcerogenic effect entry is recorded as “strong ulcerogenic effect”. Besides, the inhibition at 10 µM in data set [4] (setting [8]) turned out to be 15%. In addition, the IC50 in data set [4] (setting [9]) is > 10000 nM. Further, the IC50 in data set [4] (setting [12]) was > 10000 nM. Also, in data set [5] (setting [10]), the “Animals which died during the observation period, 1 day” value was found to be 1; the “Animals which died during the observation period, 7 days” value is 4; the “Animals which died during the observation period, 14 days” value is recorded as 4.
